# Molecular target: interaction between PD-1 and PD-L1 (Homo sapiens (Human), UniProt Q9NZQ7)
# Assay: Cisbio PD-1/PD-L1 binding assay kit (HTRF)
# Details: read-out: IC50, inhibitory activity at molecular level on the interaction between PD-1 and PD-L1
# Excerpt: 1. In vitro activity evaluation: Cisbio PD-1/PD-L1 binding assay kit was applied for the detection method of in vitro enzymology level.
# 1) Principle: PD-1 protein is with HIS tag, and PD-1 ligand PD-L1 is with hFc tag. Eu labeled anti-hFc antibody and XL665 labeled anti-HIS antibody are combined with the above two label proteins respectively. After laser excitation, energy can be transferred from donor Eu to receptor XL665, allowing XL665 to glow.
# 2) Experimental method: The specific method can be referred to Cisbio's PD-1/PD-L1 Kit (item 64CUS000C-2). Reagents should be dispensed in the following order. For 384-well white ELISA plate, 2 μl of diluent or target compound diluted with diluent was added to each well, and then 4 μl of PD-1 protein and 4 μl of PD-L1 protein were added per well, incubated for 15 min at room temperature; and 10 μl of a mixture of anti-Tag1-Eu3^+ and anti-Tag2-XL665 was added per well and incubated for 1 h to 4 h at room temperature and the fluorescence signals at 665 nm and 620 nm were measured with an Envison instrument. HTRF rate=(665 nm/620 nm)*10^4. 8-10 concentrations were detected for each compound and IC50 was calculated by Graphpad software.
# Sequence of interaction between PD-1 and PD-L1 (Q9NZQ7 19-238): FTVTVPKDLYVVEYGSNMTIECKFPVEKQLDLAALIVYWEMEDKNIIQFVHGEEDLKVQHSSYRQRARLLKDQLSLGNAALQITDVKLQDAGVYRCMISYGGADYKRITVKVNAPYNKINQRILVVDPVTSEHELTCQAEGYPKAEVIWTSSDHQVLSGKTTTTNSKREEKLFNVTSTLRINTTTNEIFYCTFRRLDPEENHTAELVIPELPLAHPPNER
row,Compound,IC50 [nM]
1,"C[C@H](O)[C@@H](NCc1cc(Cl)c(OCc2cccc(-c3ccccc3)c2Br)cc1OCc1cccc(C#N)c1)C(=O)O (stereo in doubt) [Example 26, N-(4-(2-bromo-3-phenylbenzyloxy)-5-chloro-2-(3-cyanobenzyloxy)benzyl) threonine]",≤ 10
2,"CS(=O)(=O)c1cccc(COc2cc(OCc3cccc(-c4ccccc4)c3Br)c(Cl)cc2CN[C@H](CO)C(=O)O)c1 (stereo in doubt) [Example 27, N-(4-(2-bromo-3-phenylbenzyloxy)-5-chloro-2-(3-methanesulfonylbenzyloxy)benzyl) serine]",≤ 10
3,"CS(=O)(=O)c1cccc(COc2cc(OCc3cccc(-c4ccccc4)c3Br)c(Cl)cc2CN2CCCC[C@H]2C(=O)O)c1 (stereo in doubt) [Example 28, N-(4-(2-bromo-3-phenylbenzyloxy)-5-chloro-2-(3-methanesulfonylbenzyloxy)benzyl) pipecolinic acid]",≤ 10
4,"CC(=O)NCCNCc1ccc(OCc2cccc(-c3ccccc3)c2Br)cc1OCc1cccc(C#N)c1 [Example 1, N-acetylaminoethyl-4-(2-bromo-3-phenylbenzyloxy)-2-(3-cyanobenzyloxy) benzylamine]",439
5,"CCN(CCO)Cc1ccc(OCc2cccc(-c3ccccc3)c2Br)cc1OCc1cccc(C#N)c1 [Example 3, N-Ethyl-N-hydroxylethyl-4-(2-bromo-3-phenylbenzyloxy)-2-(3-cyanobenzyloxy) benzylamine]",230
6,"N#Cc1cccc(COc2cc(OCc3cccc(-c4ccccc4)c3Br)ccc2CN2CCC[C@H]2C(=O)O)c1 [Example 4, N-(4-(2-bromo-3-phenylbenzyloxy)-2-(3-cyanobenzyloxy)benzyl) proline]",59.2
7,"N#Cc1cccc(COc2cc(OCc3cccc(-c4ccccc4)c3Br)ccc2CNC2CCOCC2)c1 [Example 9, N-(tetrahydro-2H-pyran-4-yl)-4-(2-bromo-3-phenylbenzyloxy)-2-(3-cyanobenzyloxy) benzylamine]",788
8,"CC(=O)NCCNCc1ccc(OCc2cccc(-c3ccc4c(c3)OCCO4)c2Br)cc1OCc1cccc(C#N)c1 [Example 16, N-acetylaminoethyl-4-(2-bromo-3-(2,3-dihydrobenzo[b][1,4]dioxin-6-yl)benzyloxy)-2-(3-cyanobenzyloxy) benzylamine]",268
9,"N#Cc1cccc(COc2cc(OCc3cccc(-c4ccccc4)c3Br)c(Cl)cc2CN[C@@H](CO)C(=O)O)c1 [Example 20, N-(4-(2-bromo-3-phenylbenzyloxy)-5-chloro-2-(3-cyanobenzyloxy)benzyl) serine]",2.48
10,"N#Cc1cccc(COc2cc(OCc3cccc(-c4ccc5c(c4)OCCO5)c3Br)c(Cl)cc2CN2CCCC[C@H]2C(=O)O)c1 [Example 24, (S)—N-(4-(2-bromo-3-(2,3-dihydrobenzo[b][1,4]dioxin-6-yl)benzyloxy)-5-chloro-2-(3-cyanobenzyloxy)benzyl) pipecolinic acid]",67.5

# Second part, the compound after the results:
row,IC50 [nM],Compound
1,134,"C[C@H](O)[C@@H](NCc1ccc(OCc2cccc(-c3ccccc3)c2Br)cc1OCc1cccc(C#N)c1)C(=O)O (stereo in doubt) [Example 8, N-(4-(2-bromo-3-phenylbenzyloxy)-2-(3-cyanobenzyloxy)benzyl) threonine]"
2,18.1,"C[C@H](O)[C@@H](NCc1ccc(OCc2cccc(-c3ccc4c(c3)OCCO4)c2Br)cc1OCc1cccc(C#N)c1)C(=O)O (stereo in doubt) [Example 19, N-(4-(2-bromo-3-(2,3-dihydrobenzo[b][1,4]dioxin-6-yl)benzyloxy)-2-(3-cyanobenzyloxy)benzyl) threonine]"
3,3.16,"C[C@@H](NCc1cc(Cl)c(OCc2cccc(-c3ccccc3)c2Br)cc1OCc1cccc(C#N)c1)C(=O)O (stereo in doubt) [Example 25, N-(4-(2-bromo-3-phenylbenzyloxy)-5-chloro-2-(3-cyanobenzyloxy)benzyl)alanine]"
4,29.4,"N#Cc1cccc(COc2cc(OCc3cccc(-c4ccccc4)c3Br)ccc2CN[C@@H](CO)C(=O)O)c1 [Example 2, N-(4-(2-bromo-3-phenylbenzyloxy)-2-(3-cyanobenzyloxy)benzyl) serine]"
5,307,"N#Cc1cccc(COc2cc(OCc3cccc(-c4ccccc4)c3Br)ccc2CNCCO)c1 [Example 5, N-hydroxylethyl-4-(2-bromo-3-phenylbenzyloxy)-2-(3-cyanobenzyloxy) benzylamine]"
6,178,"C[C@H](NCc1ccc(OCc2cccc(-c3ccccc3)c2Br)cc1OCc1cccc(C#N)c1)C(=O)O [Example 6, N-(4-(2-bromo-3-phenylbenzyloxy)-2-(3-cyanobenzyloxy)benzyl) alanine]"
7,4590,"CSCC[C@H](NCc1ccc(OCc2cccc(-c3ccccc3)c2Br)cc1OCc1cccc(C#N)c1)C(=O)O [Example 7, N-(4-(2-bromo-3-phenylbenzyloxy)-2-(3-cyanobenzyloxy)benzyl) methionine]"
8,7870,"COc1ccc(-c2cccc(COc3ccc(CNCCO)c(OCc4cccc(C#N)c4)c3)c2Br)cc1OC [Example 11, N-hydroxylethyl-4-(2-bromo-3-(3,4-dimethoxyphenyl)benzyloxy)-2-(3-cyanobenzyloxy) benzylamine]"
9,5350,"COc1ccc(-c2cccc(COc3ccc(CN[C@@H](CO)C(=O)O)c(OCc4cccc(C#N)c4)c3)c2Br)cc1OC [Example 13, N-(4-(2-bromo-3-(3,4-dimethoxyphenyl)benzyloxy)-2-(3-cyanobenzyloxy)benzyl) serine]"
10,6650,"COc1ccc(-c2cccc(COc3ccc(CNCCNC(C)=O)c(OCc4cccc(C#N)c4)c3)c2Br)cc1OC [Example 14, N-acetylaminoethyl-4-(2-bromo-3-(3,4-dimethoxyphenyl)benzyloxy)-2-(3-cyanobenzyloxy) benzylamine]"
11,3160,"COc1ccc(-c2cccc(COc3ccc(CN[C@@H](C)C(=O)O)c(OCc4cccc(C#N)c4)c3)c2Br)cc1OC [Example 17, N-(4-(2-bromo-3-(3,4-dimethoxyphenyl)benzyloxy)-2-(3-cyanobenzyloxy)benzyl) alanine]"
12,38.5,"N#Cc1cccc(COc2cc(OCc3cccc(-c4ccc5c(c4)OCCO5)c3Br)ccc2CN[C@@H](CO)C(=O)O)c1 [Example 18, N-(4-(2-bromo-3-(2,3-dihydrobenzo[b][1,4]dioxin-6-yl)benzyloxy)-2-(3-cyanobenzyloxy)benzyl) serine]"
